How the values were obtained:
Experiment in all cases: KINOMEscan competition binding
AAK1 (human) = AAK1 (human) (UniProt Q2M2I8); conditions: compound 1.0 µM
[1] = system: ABL1 (human), P00519 [M351T]; conditions: compound 1.0 µM
[2] = system: ABL1 (human), P00519 [Y253F]; conditions: compound 1.0 µM
ADCK4 (human) = ADCK4 (human) (UniProt Q96D53); conditions: compound 1.0 µM
ANKK1 (human) = ANKK1 (human) (UniProt Q8NFD2); conditions: compound 1.0 µM
AURKB (human) = AURKB (human) (UniProt Q96GD4); conditions: compound 1.0 µM
BTK (human) = BTK (human) (UniProt Q06187); conditions: compound 1.0 µM
CDK8 (human) = CDK8 (human) (UniProt P49336); conditions: compound 1.0 µM
CDKL5 (human) = CDKL5 (human) (UniProt O76039); conditions: for kinase still bound, per cent of control: compound 1.0 µM
CPK1 (P.falciparum) = conditions: compound 1.0 µM
CSF1R (human) = CSF1R (human) (UniProt P07333); conditions: compound 1.0 µM
CSK (human) = CSK (human) (UniProt P41240); conditions: compound 1.0 µM
CSNK1G1 (human) = CSNK1G1 (human) (UniProt Q9HCP0); conditions: compound 1.0 µM
DAPK1 (human) = DAPK1 (human) (UniProt P53355); conditions: compound 1.0 µM
DDR1 (human) = DDR1 (human) (UniProt Q08345); conditions: compound 1.0 µM
[3] = system: EGFR (human), P00533 [G719C]; conditions: compound 1.0 µM
[4] = system: EGFR (human), P00533 [L861Q]; conditions: compound 1.0 µM
EPHA1 (human) = EPHA1 (human) (UniProt P21709); conditions: compound 1.0 µM
FGFR1 (human) = FGFR1 (human) (UniProt P11362); conditions: compound 1.0 µM
[5] = system: FLT3 (human), P36888 [D835Y]; conditions: compound 1.0 µM
MAP3K10 (human) = MAP3K10 (human) (UniProt Q02779); conditions: compound 1.0 µM
MAP4K2 (human) = MAP4K2 (human) (UniProt Q12851); conditions: compound 1.0 µM
MAPK8 (human) = MAPK8 (human) (UniProt P45983); conditions: compound 1.0 µM
MELK (human) = MELK (human) (UniProt Q14680); conditions: compound 1.0 µM
MYLK (human) = MYLK (human) (UniProt Q15746); conditions: compound 1.0 µM
NEK4 (human) = NEK4 (human) (UniProt P51957); conditions: compound 1.0 µM
NLK (human) = NLK (human) (UniProt Q9UBE8); conditions: compound 1.0 µM
NTRK1 (human) = NTRK1 (human) (UniProt P04629); conditions: compound 1.0 µM
[6] = system: PIK3CA (human), P42336 [H1047Y]; conditions: compound 1.0 µM
PIP5K1A (human) = PIP5K1A (human) (UniProt Q99755); conditions: compound 1.0 µM
PRKAA1 (human) = PRKAA1 (human) (UniProt Q13131); conditions: compound 1.0 µM
PRKCI (human) = PRKCI (human) (UniProt P41743); conditions: compound 1.0 µM
PRKD3 (human) = PRKD3 (human) (UniProt O94806); conditions: compound 1.0 µM
RPS6KA4 KD1 (human) = RPS6KA4 KD1 (human) (UniProt O75676); conditions: compound 1.0 µM
RPS6KA6 KD1 (human) = RPS6KA6 KD1 (human) (UniProt Q9UK32); conditions: compound 1.0 µM
SRPK3 (human) = SRPK3 (human) (UniProt Q9UPE1); conditions: compound 1.0 µM
STK11 (human) = STK11 (human) (UniProt Q15831); conditions: compound 1.0 µM
STK38L (human) = STK38L (human) (UniProt Q9Y2H1); conditions: compound 1.0 µM
TAOK1 (human) = TAOK1 (human) (UniProt Q7L7X3); conditions: compound 1.0 µM
TEK (human) = TEK (human) (UniProt Q02763); conditions: compound 1.0 µM
TGFBR2 (human) = TGFBR2 (human) (UniProt P37173); conditions: compound 1.0 µM
TNIK (human) = TNIK (human) (UniProt Q9UKE5); conditions: compound 1.0 µM
WEE2 (human) = WEE2 (human) (UniProt P0C1S8); conditions: compound 1.0 µM

Sequence of CDKL5 (human) (O76039 whole entry, looked up): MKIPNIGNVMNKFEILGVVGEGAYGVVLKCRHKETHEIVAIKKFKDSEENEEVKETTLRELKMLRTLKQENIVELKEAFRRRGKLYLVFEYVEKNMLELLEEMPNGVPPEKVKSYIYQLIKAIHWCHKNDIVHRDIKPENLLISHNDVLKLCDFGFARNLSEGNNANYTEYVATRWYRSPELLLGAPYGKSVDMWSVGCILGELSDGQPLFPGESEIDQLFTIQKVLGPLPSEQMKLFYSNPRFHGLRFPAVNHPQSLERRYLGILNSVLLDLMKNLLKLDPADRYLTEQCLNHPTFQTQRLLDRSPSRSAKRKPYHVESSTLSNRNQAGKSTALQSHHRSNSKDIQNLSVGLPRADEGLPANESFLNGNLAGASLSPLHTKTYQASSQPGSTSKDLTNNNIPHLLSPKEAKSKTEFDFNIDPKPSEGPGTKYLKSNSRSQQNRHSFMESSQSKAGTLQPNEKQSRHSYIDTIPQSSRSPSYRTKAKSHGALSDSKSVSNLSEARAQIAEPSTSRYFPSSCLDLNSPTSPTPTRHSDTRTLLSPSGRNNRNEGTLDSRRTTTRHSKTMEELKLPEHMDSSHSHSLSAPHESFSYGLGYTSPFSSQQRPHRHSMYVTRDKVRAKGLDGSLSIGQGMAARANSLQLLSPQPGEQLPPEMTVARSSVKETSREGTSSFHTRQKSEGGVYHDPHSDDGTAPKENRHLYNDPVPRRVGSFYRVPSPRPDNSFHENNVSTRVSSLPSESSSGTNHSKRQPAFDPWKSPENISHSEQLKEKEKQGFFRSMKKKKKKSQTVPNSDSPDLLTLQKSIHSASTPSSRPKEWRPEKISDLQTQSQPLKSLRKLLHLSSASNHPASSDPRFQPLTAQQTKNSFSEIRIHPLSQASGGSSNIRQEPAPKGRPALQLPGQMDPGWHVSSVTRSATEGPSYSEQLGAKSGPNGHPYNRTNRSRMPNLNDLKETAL
Sequence of FGFR1 (human) (P11362 whole entry, looked up): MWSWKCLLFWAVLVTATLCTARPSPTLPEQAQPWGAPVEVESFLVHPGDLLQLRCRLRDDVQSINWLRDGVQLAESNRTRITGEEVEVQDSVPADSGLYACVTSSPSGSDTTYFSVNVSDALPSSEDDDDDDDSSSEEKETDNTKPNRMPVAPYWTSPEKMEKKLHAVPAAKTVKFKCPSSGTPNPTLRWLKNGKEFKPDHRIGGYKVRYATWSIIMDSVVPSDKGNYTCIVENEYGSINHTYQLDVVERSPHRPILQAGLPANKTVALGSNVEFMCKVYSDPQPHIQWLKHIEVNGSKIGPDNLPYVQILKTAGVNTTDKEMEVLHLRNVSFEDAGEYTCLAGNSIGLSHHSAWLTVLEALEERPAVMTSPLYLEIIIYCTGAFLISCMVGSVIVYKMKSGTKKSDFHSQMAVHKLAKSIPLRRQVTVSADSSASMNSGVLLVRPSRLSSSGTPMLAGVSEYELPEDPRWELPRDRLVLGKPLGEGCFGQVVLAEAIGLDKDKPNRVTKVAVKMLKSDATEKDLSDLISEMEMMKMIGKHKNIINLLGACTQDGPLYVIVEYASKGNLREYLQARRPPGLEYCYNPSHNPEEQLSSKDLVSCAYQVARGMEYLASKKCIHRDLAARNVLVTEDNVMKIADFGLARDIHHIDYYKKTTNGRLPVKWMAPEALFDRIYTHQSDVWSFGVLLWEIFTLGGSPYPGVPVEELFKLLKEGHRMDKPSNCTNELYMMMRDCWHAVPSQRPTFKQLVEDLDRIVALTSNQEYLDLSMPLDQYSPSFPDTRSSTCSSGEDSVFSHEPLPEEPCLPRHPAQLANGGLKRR
Sequence of CSF1R (human) (P07333 whole entry, looked up): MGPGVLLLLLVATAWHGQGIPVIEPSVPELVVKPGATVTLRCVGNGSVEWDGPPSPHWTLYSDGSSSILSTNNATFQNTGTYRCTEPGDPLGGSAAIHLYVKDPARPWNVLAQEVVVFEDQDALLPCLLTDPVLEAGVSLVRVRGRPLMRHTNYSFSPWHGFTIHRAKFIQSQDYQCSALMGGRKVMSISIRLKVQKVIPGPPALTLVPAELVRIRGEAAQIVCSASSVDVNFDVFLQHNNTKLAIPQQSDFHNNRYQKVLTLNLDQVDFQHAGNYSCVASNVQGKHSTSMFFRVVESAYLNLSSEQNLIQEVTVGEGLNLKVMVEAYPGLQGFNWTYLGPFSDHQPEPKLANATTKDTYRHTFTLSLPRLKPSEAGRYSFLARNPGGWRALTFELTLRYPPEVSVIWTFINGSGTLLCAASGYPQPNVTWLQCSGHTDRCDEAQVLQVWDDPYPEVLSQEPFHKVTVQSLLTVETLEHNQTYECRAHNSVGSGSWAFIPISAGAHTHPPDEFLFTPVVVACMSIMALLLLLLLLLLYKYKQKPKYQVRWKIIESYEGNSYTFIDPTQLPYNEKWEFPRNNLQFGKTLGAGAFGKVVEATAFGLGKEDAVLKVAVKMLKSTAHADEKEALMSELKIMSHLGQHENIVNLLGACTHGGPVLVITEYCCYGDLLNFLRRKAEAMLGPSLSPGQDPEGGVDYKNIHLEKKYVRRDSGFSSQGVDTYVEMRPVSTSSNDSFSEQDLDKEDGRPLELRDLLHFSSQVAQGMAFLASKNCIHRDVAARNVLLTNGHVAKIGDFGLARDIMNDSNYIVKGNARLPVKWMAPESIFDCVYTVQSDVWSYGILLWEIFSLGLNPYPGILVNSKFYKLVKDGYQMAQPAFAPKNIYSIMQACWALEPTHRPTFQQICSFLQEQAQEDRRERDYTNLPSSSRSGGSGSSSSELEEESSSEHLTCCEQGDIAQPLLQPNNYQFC
Sequence of EPHA1 (human) (P21709 whole entry, looked up): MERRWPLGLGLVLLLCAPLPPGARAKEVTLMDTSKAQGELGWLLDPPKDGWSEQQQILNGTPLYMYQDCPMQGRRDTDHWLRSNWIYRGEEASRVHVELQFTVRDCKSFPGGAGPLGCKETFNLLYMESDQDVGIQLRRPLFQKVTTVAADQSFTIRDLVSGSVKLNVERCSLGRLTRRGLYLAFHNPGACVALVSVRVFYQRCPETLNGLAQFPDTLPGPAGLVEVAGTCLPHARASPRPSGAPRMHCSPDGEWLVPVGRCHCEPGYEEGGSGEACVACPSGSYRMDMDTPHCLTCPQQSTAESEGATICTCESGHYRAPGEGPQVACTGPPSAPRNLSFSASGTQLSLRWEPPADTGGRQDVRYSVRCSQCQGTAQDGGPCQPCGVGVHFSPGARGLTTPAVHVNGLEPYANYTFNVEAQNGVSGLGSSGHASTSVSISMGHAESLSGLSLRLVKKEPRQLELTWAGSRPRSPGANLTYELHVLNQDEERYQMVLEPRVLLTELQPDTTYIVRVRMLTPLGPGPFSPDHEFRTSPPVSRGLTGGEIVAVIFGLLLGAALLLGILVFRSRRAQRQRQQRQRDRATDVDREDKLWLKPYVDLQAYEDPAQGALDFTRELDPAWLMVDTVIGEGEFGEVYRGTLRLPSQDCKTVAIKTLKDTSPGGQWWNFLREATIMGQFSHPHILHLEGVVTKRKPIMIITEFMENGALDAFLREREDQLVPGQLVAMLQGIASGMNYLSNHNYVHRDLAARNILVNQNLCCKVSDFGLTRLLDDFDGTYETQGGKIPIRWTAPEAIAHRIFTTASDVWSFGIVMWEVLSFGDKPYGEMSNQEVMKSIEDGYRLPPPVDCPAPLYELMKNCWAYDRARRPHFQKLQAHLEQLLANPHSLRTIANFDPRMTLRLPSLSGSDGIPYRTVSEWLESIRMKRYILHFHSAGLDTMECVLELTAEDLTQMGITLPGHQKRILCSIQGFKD
Sequence of TAOK1 (human) (Q7L7X3 whole entry, looked up): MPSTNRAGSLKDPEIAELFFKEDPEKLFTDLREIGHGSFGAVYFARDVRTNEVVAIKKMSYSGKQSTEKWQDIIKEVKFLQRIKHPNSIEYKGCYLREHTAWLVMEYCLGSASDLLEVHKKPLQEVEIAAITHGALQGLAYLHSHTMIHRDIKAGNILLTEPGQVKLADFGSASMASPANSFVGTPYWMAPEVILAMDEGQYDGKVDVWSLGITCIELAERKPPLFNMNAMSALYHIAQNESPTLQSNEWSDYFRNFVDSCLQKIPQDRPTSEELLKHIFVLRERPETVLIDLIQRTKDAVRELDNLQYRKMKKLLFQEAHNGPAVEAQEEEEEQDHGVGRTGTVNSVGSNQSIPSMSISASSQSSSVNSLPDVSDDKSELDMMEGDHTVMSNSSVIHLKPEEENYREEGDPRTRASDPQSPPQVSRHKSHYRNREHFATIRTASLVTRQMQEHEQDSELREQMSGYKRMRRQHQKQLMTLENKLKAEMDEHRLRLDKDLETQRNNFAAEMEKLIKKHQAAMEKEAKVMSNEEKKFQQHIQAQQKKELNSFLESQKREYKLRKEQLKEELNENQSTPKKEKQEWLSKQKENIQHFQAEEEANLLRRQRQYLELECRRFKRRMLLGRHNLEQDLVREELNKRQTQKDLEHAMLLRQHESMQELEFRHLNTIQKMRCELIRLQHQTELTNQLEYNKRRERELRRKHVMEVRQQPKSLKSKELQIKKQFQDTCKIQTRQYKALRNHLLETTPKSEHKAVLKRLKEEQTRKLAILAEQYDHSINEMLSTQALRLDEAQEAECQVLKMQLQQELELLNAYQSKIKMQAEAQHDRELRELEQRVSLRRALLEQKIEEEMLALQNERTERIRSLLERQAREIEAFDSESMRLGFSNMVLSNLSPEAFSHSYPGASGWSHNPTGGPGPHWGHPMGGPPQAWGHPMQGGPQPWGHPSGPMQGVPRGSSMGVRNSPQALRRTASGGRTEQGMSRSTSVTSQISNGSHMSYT
Sequence of AURKB (human) (Q96GD4 whole entry, looked up): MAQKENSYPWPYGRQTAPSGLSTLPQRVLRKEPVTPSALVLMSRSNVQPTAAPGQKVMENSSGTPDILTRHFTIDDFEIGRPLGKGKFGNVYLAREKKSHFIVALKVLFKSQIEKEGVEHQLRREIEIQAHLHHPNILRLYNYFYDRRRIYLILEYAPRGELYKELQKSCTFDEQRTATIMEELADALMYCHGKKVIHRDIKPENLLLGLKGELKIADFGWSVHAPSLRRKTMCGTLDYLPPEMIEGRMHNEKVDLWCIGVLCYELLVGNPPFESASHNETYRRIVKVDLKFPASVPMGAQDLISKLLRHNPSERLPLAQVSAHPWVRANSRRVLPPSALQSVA

Compound `CN(C)C/C=C/C(=O)Nc1cccc(C(=O)Nc2ccc(Nc3nccc(/C(C#N)=C4\Nc5ccccc5S4)n3)cc2)c1` has a kinase still bound, per cent of control (AAK1 (human)) of 100%, a kinase still bound, per cent of control [1] of 69% and a kinase still bound, per cent of control [2] of 100%. The kinase still bound, per cent of control (ADCK4 (human)) was 48%, the kinase still bound, per cent of control (ANKK1 (human)) was 100% and the kinase still bound, per cent of control (AURKB (human)) was 83%. For the same compound, the kinase still bound, per cent of control (BTK (human)) was 76%, the kinase still bound, per cent of control (CDK8 (human)) was 100% and the kinase still bound, per cent of control (CDKL5 (human)) was 21%. The kinase still bound, per cent of control (CPK1 (P.falciparum)) was 96%, the kinase still bound, per cent of control (CSF1R (human)) was 82% and the kinase still bound, per cent of control (CSK (human)) was 100%. For the same compound, the kinase still bound, per cent of control (CSNK1G1 (human)) was 92%, the kinase still bound, per cent of control (DAPK1 (human)) was 100% and the kinase still bound, per cent of control (DDR1 (human)) was 59%. It also gave a kinase still bound, per cent of control [3] of 86%, a kinase still bound, per cent of control [4] of 81% and a kinase still bound, per cent of control (EPHA1 (human)) of 89%. It also gave a kinase still bound, per cent of control (FGFR1 (human)) of 100%, a kinase still bound, per cent of control [5] of 73% and a kinase still bound, per cent of control (MAP3K10 (human)) of 68%. It also gave a kinase still bound, per cent of control (MAP4K2 (human)) of 100%, a kinase still bound, per cent of control (MAPK8 (human)) of 0% and a kinase still bound, per cent of control (MELK (human)) of 100%. For the same compound, the kinase still bound, per cent of control (MYLK (human)) was 100%, the kinase still bound, per cent of control (NEK4 (human)) was 100% and the kinase still bound, per cent of control (NLK (human)) was 100%. It also gave a kinase still bound, per cent of control (NTRK1 (human)) of 100%, a kinase still bound, per cent of control [6] of 100% and a kinase still bound, per cent of control (PIP5K1A (human)) of 39%. For the same compound, the kinase still bound, per cent of control (PRKAA1 (human)) was 100%, the kinase still bound, per cent of control (PRKCI (human)) was 100% and the kinase still bound, per cent of control (PRKD3 (human)) was 100%. For the same compound, the kinase still bound, per cent of control (RPS6KA4 KD1 (human)) was 89%, the kinase still bound, per cent of control (RPS6KA6 KD1 (human)) was 100% and the kinase still bound, per cent of control (SRPK3 (human)) was 82%. For the same compound, the kinase still bound, per cent of control (STK11 (human)) was 90%, the kinase still bound, per cent of control (STK38L (human)) was 100% and the kinase still bound, per cent of control (TAOK1 (human)) was 74%. The kinase still bound, per cent of control (TEK (human)) was 100%, the kinase still bound, per cent of control (TGFBR2 (human)) was 100% and the kinase still bound, per cent of control (TNIK (human)) was 100%. The kinase still bound, per cent of control (WEE2 (human)) was 100%.
In the case of `CN(C)C/C=C/C(=O)Nc1cccc(C(=O)Nc2ccc(Nc3nccc(-c4cccnc4)n3)cc2)c1`, the kinase still bound, per cent of control (AAK1 (human)) is reported as 18%, the kinase still bound, per cent of control [1] is reported as 42% and the kinase still bound, per cent of control [2] is reported as 39%. For the same compound, the kinase still bound, per cent of control (ADCK4 (human)) was 69%, the kinase still bound, per cent of control (ANKK1 (human)) was 50% and the kinase still bound, per cent of control (AURKB (human)) was 63%. It also gave a kinase still bound, per cent of control (BTK (human)) of 76%, a kinase still bound, per cent of control (CDK8 (human)) of 68% and a Kd (CDKL5 (human)) of 34 nM. For the same compound, the kinase still bound, per cent of control (CDKL5 (human)) was 1.7%, the kinase still bound, per cent of control (CPK1 (P.falciparum)) was 77% and the kinase still bound, per cent of control (CSF1R (human)) was 52%. For the same compound, the kinase still bound, per cent of control (CSK (human)) was 97%, the kinase still bound, per cent of control (CSNK1G1 (human)) was 69% and the kinase still bound, per cent of control (DAPK1 (human)) was 63%. For the same compound, the kinase still bound, per cent of control (DDR1 (human)) was 100%, the kinase still bound, per cent of control [3] was 48% and the kinase still bound, per cent of control [4] was 84%. It also gave a kinase still bound, per cent of control (EPHA1 (human)) of 95%, a kinase still bound, per cent of control (FGFR1 (human)) of 90% and a kinase still bound, per cent of control [5] of 13%. For the same compound, the kinase still bound, per cent of control (MAP3K10 (human)) was 65%, the kinase still bound, per cent of control (MAP4K2 (human)) was 9.9% and the kinase still bound, per cent of control (MAPK8 (human)) was 0%. It also gave a kinase still bound, per cent of control (MELK (human)) of 30%, a kinase still bound, per cent of control (MYLK (human)) of 100% and a kinase still bound, per cent of control (NEK4 (human)) of 83%. The kinase still bound, per cent of control (NLK (human)) was 81%, the kinase still bound, per cent of control (NTRK1 (human)) was 76% and the kinase still bound, per cent of control [6] was 100%. It also gave a kinase still bound, per cent of control (PIP5K1A (human)) of 18%, a kinase still bound, per cent of control (PRKAA1 (human)) of 92% and a kinase still bound, per cent of control (PRKCI (human)) of 100%. It also gave a kinase still bound, per cent of control (PRKD3 (human)) of 100%, a kinase still bound, per cent of control (RPS6KA4 KD1 (human)) of 82% and a kinase still bound, per cent of control (RPS6KA6 KD1 (human)) of 88%. It also gave a kinase still bound, per cent of control (SRPK3 (human)) of 28%, a kinase still bound, per cent of control (STK11 (human)) of 67% and a kinase still bound, per cent of control (STK38L (human)) of 99%. For the same compound, the kinase still bound, per cent of control (TAOK1 (human)) was 13%, the kinase still bound, per cent of control (TEK (human)) was 98% and the kinase still bound, per cent of control (TGFBR2 (human)) was 76%. It also gave a kinase still bound, per cent of control (TNIK (human)) of 40% and a kinase still bound, per cent of control (WEE2 (human)) of 100%.
